# Entries after “also recorded” stand apart in the source; their conditions may differ. Like-named read-outs stand apart in the source and are kept apart here.
# Key:
# AT2 receptor [1] = test: Neurite outgrowth assay with NG108-15 cells (AT2 receptor function assay)
# Protocol: The ratio of cell neurite outgrowth was used to evaluate, and the details are shown in the Supplementary Material.
# NG108-15 cells (China Center for Type Culture Collection CCTCC) were used to study the in vitro morphological effects. In their undifferentiated state, neuroblastoma × glioma hybrid NG108-15 cells havea rounded shape and divide actively. The cells were cultured from passage 18–25 in Dulbecco’s modified Eagle’s medium (DMEM, Gibco BRL, Thermo Fisher Technology (China) Co., Ltd, China) with 10% fetal bovine serum (FBS, Gibco), HAT supplement and 50 mg L^−1 gentamycin at 37°C in 75 cm^2 Nunclon Delta flasks in a humidified atmosphere of 95% air and 5% CO2, as previously described ([Buisson et al., 1992]). Subcultures were performed at subconfluency. Under these conditions, cells express mainly the AT2 receptor subtype ([Whitebread et al., 1991]). Cells were treated during 3 days, once a day (first treatment 24 h after plating), and micrographs were taken on the fourth day. The details of experimental grouping and administration method are shown in the Supplementary Material. […]
# 4. NG108-15 cell experiment steps […]
# peptidic AT2 receptor agonist CGP-42112A induces neurite outgrowth. The […]
# plated as described in the Experimental Section, and adequate test concentrations for […]
# each compound were determined by testing a dilution series of each compound […]
# ranging from 1 pM to 1 uM.
# The chemicals used in the present study were obtained from the following sources: Dulbecco’s modified Eagle’s medium (DMEM), heat-inactivated fetal bovine serum (FBS), HAT supplement (hypoxanthine, aminopterin, thymidine), gentamycin from Gibco BRL (Burlington, Ontario, Canada), and Ang II from MedChemExpress
# AT1 receptor = biological target: T1, AT1 receptor (Rattus norvegicus, UniProt P25095); test: Rat liver membrane AT1 receptor binding assay ([125I]-Ang II displacement); conditions: displacement of [125I]-Ang II, rat liver membranes; means ± SE, triplicate; read-out: Ki (nM) AT1R
# T1 construct: Rat liver membranes were prepared according to the method of Dudley et al; from tissue; host or cells: rat liver membranes
# Protocol: The target compounds were evaluated for AT1 receptor binding affinity by displacement of [^125I]-Ang II from the AT1 receptor in rat liver membranes. The radio-iodinated AT2 receptor selective ligand [^125I]-CGP42112 was used to study AT2 receptor binding affinity in HEK-293 cells (HEK293-hAT2R) ([Dudley et al., 1990]; [Whitebread et al., 1991]). All of above methods were widely accepted and used to evaluate the binding activity of AT1 and AT2 receptors.
# Rat liver membranes were prepared according to the method of Dudley et al ([Dudley et al., 1990]). After HEK-293 cells were transfected with the AT2 receptor, a lysis buffer was used to separate the cell membrane of HEK-293 cells ([Grieger et al., 2016]), using 27-G Resuspend. The lysis solution was mixed and centrifuged at 12,000 g for 10 min at 4°C. Details are shown in the Supplementary Material.
# 3. Radioligand binding assay steps
# 3.1 Rat Liver Membrane AT1 Receptor Binding Assay.
# Rat liver membranes were prepared according to the method of Dudley et al[1].
# Binding of [125I]-Ang II to membranes was conducted in a final volume of 0.5 mL containing 50 mM Tris-HCl (pH 7.4), 100 mM NaCl, 10 mM MgCl2, 1 mM EDTA, 0.025% bacitracin, 0.2% BSA (bovine serum albumin), liver homogenate corresponding to 5 mg of the original tissue weight, [125I]-Ang II (80000-85 000 cpm, 0.03 nM), and variable concentrations of test substance. Samples were incubated at 25 ℃ for 2 h, and binding was terminated by filtration through Whatman GF/B glass-fiber filter sheets, which had been presoaked overnight with 0.3 % polyethylamine, using a Brandel cell harvester. The filterswere washed with 3×3 mL of Tris-HCl (pH 7.4) and transferred to tubes. The radioactivity was measured in a γ-counter. The characteristics of the Ang II binding AT1receptor was determined by using six different concentrations (0.03-5 nmol/L) of the labeled [125I]-Ang II.
# Nonspecific binding was determined in the presence of 1 µM Ang II.The specific binding was determined by subtracting the nonspecific binding from the total bound [125I]-Ang II.The apparent dissociation constant Ki values were calculated from IC50 values using the Cheng-Prusoff equation. […]
# (§1) one-site fit.All determinations were performed in triplicate. […]
# AT2 receptor [2] = biological target: T2, AT2 receptor (Homo sapiens, UniProt P50052); test: HEK-293 cell AT2 receptor binding assay ([125I]-CGP42112 displacement, HEK293-hAT2R)
# T2 construct: expressed in transfected cells; host or cells: HEK-293
# T2 sequence (P50052 1-363): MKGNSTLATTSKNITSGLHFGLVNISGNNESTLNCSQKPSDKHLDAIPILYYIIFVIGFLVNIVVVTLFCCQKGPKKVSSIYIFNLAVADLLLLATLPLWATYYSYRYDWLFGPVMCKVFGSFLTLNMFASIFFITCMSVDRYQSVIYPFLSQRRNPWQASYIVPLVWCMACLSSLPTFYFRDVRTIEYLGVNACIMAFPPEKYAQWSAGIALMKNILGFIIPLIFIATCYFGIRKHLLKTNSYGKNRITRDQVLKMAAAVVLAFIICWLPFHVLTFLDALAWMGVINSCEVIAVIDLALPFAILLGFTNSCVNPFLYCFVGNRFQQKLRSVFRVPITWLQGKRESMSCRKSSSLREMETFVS
# Protocol: All of above methods were widely accepted and used to evaluate the binding activity of AT1 and AT2 receptors.
# The lysis solution was mixed and centrifuged at 12,000 g for 10 min at 4°C. Details are shown in the Supplementary Material.
# After HEK-293 cells were transfected with AT2 receptor, lysis buffer (150 mM NaCl, 0.1% Triton X-100, 50 mM Tris-HCl, 1 mM EDTA, protease inhibitor) was used to separate the cell membrane of HEK-293 cells[2],using 27-G Resuspend and mix the lysis solution, and centrifuge at 12,000 g for 10 minutes at 4 °C. The supernatant was collected and centrifuged for a further 60 minutes. The precipitated membrane extracts were buffered (150 mM NaCl, 10 mM MgCl2, 0.5 % SDS, 1 % Triton X-100, 50 mM Tris-Cl, 1 mM EDTA, protease inhibitor ) for resuspension. […]
# mL containing 50 mM Tris-HCl (pH 7.4), 100 mM NaCl, 10 mM MgCl2, 1 mM […]
# cpm, 0.03 nM), and variable concentrations of test substance. Samples were incubated at 25 ℃ for 2 h, and binding was terminated by filtration through Whatman GF/B glass-fiber filter sheets, which had been presoaked overnight with 0.3 % polyethylamine, using a Brandel cell harvester. The filterswere washed with 3×3 mL of Tris-HCl (pH 7.4) and transferred to tubes. The radioactivity was measured in a γ-counter. The characteristics of the Ang II binding AT1 receptor was determined by […]
# Nonspecific binding was determined in the presence of 1 µM Ang II.The specific binding was determined by subtracting the nonspecific binding from the total bound The apparent dissociation constant Ki values were calculated from IC50 values using the Cheng-Prusoff equation. […]
# as §1
# T1 sequence (P25095 whole entry): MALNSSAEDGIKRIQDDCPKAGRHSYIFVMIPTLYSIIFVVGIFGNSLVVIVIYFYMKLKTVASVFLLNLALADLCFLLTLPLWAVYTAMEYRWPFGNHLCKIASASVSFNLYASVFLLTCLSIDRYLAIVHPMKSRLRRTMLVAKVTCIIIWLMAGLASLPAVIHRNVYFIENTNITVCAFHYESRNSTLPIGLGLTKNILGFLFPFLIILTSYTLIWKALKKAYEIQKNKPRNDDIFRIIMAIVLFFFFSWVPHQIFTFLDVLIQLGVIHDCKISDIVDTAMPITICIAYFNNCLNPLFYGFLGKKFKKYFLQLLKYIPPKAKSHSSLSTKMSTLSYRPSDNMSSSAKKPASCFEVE
Compound,"Function (AT2 receptor agonist / antagonist) (AT2 receptor [1]; 3-day treatment, 10 or 100 nM, with or without PD-123,319 (10 uM) or Ang II)","evidence of cell death (AT2 receptor [1]; dilution series 1 pM to 1 uM, seen only at the highest concentration)",Ki (AT1 receptor) [nM],Ki (AT2 receptor [2]) [nM],"morphology compared to untreated cells (AT2 receptor [1]; PD-123,319 alone)",melting point [°C],"Ki (AT2 receptor [2]; displacement of [125I]-CGP42112, HEK293-hAT2R membranes, means ± SE, triplicate, read-out: Ki (nM) AT2R) [nM]","ratio of cell neurite outgrowth (cells with neurites as percentage of total cells) (AT2 receptor [1]; 3-day treatment, substance alone (Ang II 100 nM; compounds 10 or 100 nM)) [%]"
"CC(C)Cc1ccc(S(=O)(=O)NC(=O)OC(C)C)c(-c2cccc(Cn3cncn3)c2)c1 [8d, Isopropyl((3’-((1H-1,2,4-triazol-1-yl)methyl)-5-isobutyl-[1,1′-biphenyl]-2-yl)sulfonyl)carbamate]",antagonistic activity; also recorded: antagonist activity,evidence of cell death,1786 ± 1.37,116 ± 1.18,,,,
"Cc1cc(Cn2cnc3c2C[C@@H](C(=O)O)N(C(=O)C(c2ccccc2)c2ccccc2)C3)ccc1N(C)C [PD-123,319, reference compound]",,,,,did not alter,,,
"CCCCOC(=O)NS(=O)(=O)c1ccc(CCCC)cc1-c1cccc(Cn2cncn2)c1 [8f, Butyl((3'-((1H-1,2,4-triazol-1-yl)methyl)-5-butyl-[1,1′-biphenyl]-2-yl)sulfonyl)carbamate]",,,1425 ± 1.12,252.7 ± 1.2,,150.1 to 151.4,,
"CCCCOC(=O)NS(=O)(=O)c1ccc(CC(C)C)cc1-c1cccc(Cn2cccn2)c1 [9b, Butyl((3'-((1H-pyrazol-1-yl)methyl)-5-isobutyl-[1,1′-biphenyl]-2-yl)sulfonyl)carbamate]",,,989.7 ± 1.08,,,129.1 to 131.4,1027 ± 1.15,
"CCCCc1ccc(S(=O)(=O)NC(=O)OCC(C)C)c(-c2cccc(Cn3cncn3)c2)c1 [8g, Isobutyl((3'-((1H-1,2,4-triazol-1-yl)methyl)-5-butyl-[1,1′-biphenyl]-2-yl)sulfonyl)carbamate]",,,945.5 ± 1.22,347.5 ± 1.36,,168.4 to 169.1,,
"CCCCC(=O)NS(=O)(=O)c1ccc(CCCC)cc1-c1cccc(Cn2cncn2)c1 [8e, N-((3'-((1H-1,2,4-triazol-1-yl)methyl)-5-butyl-[1,1′-biphenyl]-2-yl)sulfonyl)pentanamide]",,,505.2 ± 1.4,753.9 ± 1.1,,141.8 to 142.4,,
"CCCCC(=O)NS(=O)(=O)c1ccc(CC(C)C)cc1-c1cccc(Cn2cncn2)c1 [8a, N-((3'-((1H-1,2,4-triazol-1-yl)methyl)-5-isobutyl-[1,1′-biphenyl]-2-yl)sulfonyl)pentanamide]",,,629.4 ± 1.1,873.7 ± 1.1,,138.4 to 139.7,,
"CCCCC(=O)NS(=O)(=O)c1ccc(CCCC)cc1-c1cccc(Cn2cccn2)c1 [9e, N-((3'-((1H-pyrazol-1-yl)methyl)-5-butyl-[1,1′-biphenyl]-2-yl)sulfonyl)pentanamide]",,,363.9 ± 1.28,992.9 ± 1.26,,140.1 to 141.3,,
Ang II [reference compound],,,,,,,,~20
"CCCCC(=O)NS(=O)(=O)c1ccc(CC(C)C)cc1-c1cccc(Cn2cccn2)c1 [9a, N-((3'-((1H-pyrazol-1-yl)methyl)-5-isobutyl-[1,1′-biphenyl]-2-yl)sulfonyl)pentanamide]",,,1264 ± 1.14,1152 ± 1.1,,125.8 to 126.7,,
"CCCCOC(=O)NS(=O)(=O)c1ccc(CC(C)C)cc1-c1cccc(Cn2cncn2)c1 [8b, ((3'-((1H-1,2,4-triazol-1-yl)methyl)-5-isobutyl-[1,1′-biphenyl]-2-yl)sulfonyl)carbamae]",,,846.1 ± 1.17,273.5 ± 1.2,,148.1 to 149.3,,
"CC(C)COC(=O)NS(=O)(=O)c1ccc(CC(C)C)cc1-c1cccc(Cn2cncn2)c1 [8c, Isobutyl((3'-((1H-1,2,4-triazol-1-yl)methyl)-5-isobutyl-[1,1′-biphenyl]-2-yl)sulfonyl)carbamate]",,,1037 ± 1.1,322 ± 1.24,,145.3 to 146.2,,
"CC(C)COC(=O)NS(=O)(=O)c1ccc(CC(C)C)cc1-c1cccc(Cn2cccn2)c1 [9c, Isobutyl((3'-((1H-pyrazol-1-yl)methyl)-5-isobutyl-[1,1′-biphenyl]-2-yl)sulfonyl)carbamate]",,,1027 ± 1.08,916.2 ± 1.3,,149.6 to 151.3,,
"CCCCc1ccc(S(=O)(=O)NC(=O)OCC(C)C)c(-c2cccc(Cn3cccn3)c2)c1 [9g, Isobutyl((3'-((1H-pyrazol-1-yl)methyl)-5-butyl-[1,1′-biphenyl]-2-yl)sulfonyl)carbamate]",,,1212 ± 1.12,513.3 ± 1.18,,149.3 to 151.2,,
"CCCCOC(=O)NS(=O)(=O)c1ccc(CCCC)cc1-c1cccc(Cn2cccn2)c1 [9f, Butyl((3'-((1H-pyrazol-1-yl)methyl)-5-butyl-[1,1′-biphenyl]-2-yl)sulfonyl)carbamate]",,,1310 ± 1.11,467.9 ± 1.19,,142.5 to 143.1,,
"CC(C)Cc1ccc(S(=O)(=O)NC(=O)OC(C)C)c(-c2cccc(Cn3cccn3)c2)c1 [9d, Isopropyl((3'-((1H-pyrazol-1-yl)methyl)-5-isobutyl-[1,1′-biphenyl]-2-yl)sulfonyl)carbamate]",,,1549 ± 1.11,74.1 ± 1.16,,146.6 to 147.5,,
